Laboratory results: PubChem BioAssay (NCI)
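A five-concentration, 48-hour dose response in 96-well plates underlies each endpoint, interpolated linearly between surrounding concentrations. GI50: concentration for 50% inhibition of growth. TGI is the concentration that stops growth completely.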

Assays:
Test in all cases: NCI anticancer screen, dose series, 48 h
U251 CNS = test system: U251 CNS
SK-MEL-5 melanoma = test system: SK-MEL-5 melanoma
SN12C renal = test system: SN12C renal
MDA-MB-231 breast = test system: MDA-MB-231 breast
A549 NSCLC = test system: A549 NSCLC
UO-31 renal = test system: UO-31 renal
UACC-257 melanoma = test system: UACC-257 melanoma
OVCAR-3 ovarian = test system: OVCAR-3 ovarian
LOX IMVI melanoma = test system: LOX IMVI melanoma
SR leukemia = test system: SR leukemia

| Structure (SMILES) | TGI (U251 CNS) [µM] | TGI (SK-MEL-5 melanoma) [µM] | TGI (SN12C renal) [µM] | TGI (MDA-MB-231 breast) [µM] | TGI (A549 NSCLC) [µM] | TGI (UO-31 renal) [µM] | TGI (UACC-257 melanoma) [µM] | TGI (OVCAR-3 ovarian) [µM] | TGI (LOX IMVI melanoma) [µM] | TGI (SR leukemia) [µM] | GI50 (OVCAR-3 ovarian) [nM] |
| --- | --- | --- | --- | --- | --- | --- | --- | --- | --- | --- | --- |
| Cc1c(C(=O)O)sc2nc[nH]c(=O)c12 | > 100 | > 100 | > 100 | > 100 | > 100 | > 100 | > 100 | > 100 | > 100 |  |  |
| C/C(CC(O)(C(F)(F)F)C(F)(F)F)=N\O | > 10 | > 10 | > 10 | > 10 | > 10 |  | > 10 | > 10 | > 10 | > 10 |  |
| N/C(=N\N=C/c1c(O)cc(O)cc1O)NO | > 100 | > 100 | > 100 |  | > 100 | > 100 | > 100 | > 100 | > 100 |  |  |
| CSCSCC(CO)NC(=O)/C=C\c1c(C)[nH]c(=O)[nH]c1=O (configuration not stated) | 201 | 105 | 102 |  | 375 | 126 | 208 | 14 | 107 |  | 1410 |
| CC12CC(c3ccccc3O1)C(C(=O)Nc1nccs1)C(=O)N2 (configuration not stated) | > 100 | > 100 |  | > 100 | > 100 | > 100 | > 100 | > 100 | > 100 |  |  |
| CC1=NN(c2ccccc2)C(=O)/C1=C\c1c(C)[nH]n(-c2ccccc2)c1=O | > 100 | > 100 | > 100 | > 100 | > 100 | > 100 | > 100 | > 100 |  | > 100 |  |
| CCOC(=O)c1c(SC(=O)c2ccc(Cl)cc2)n(-c2ccccc2)c(=S)n(-c2ccccc2)c1=O | > 100 |  | > 100 | > 100 | > 100 |  | > 100 | > 100 | > 100 | > 100 |  |
| COc1ccc(NCn2nc(CCCCCCCCc3nn(CNc4ccc(OC)cc4)c(=S)o3)oc2=S)cc1 | > 100 | > 100 | > 100 | > 100 | > 100 | > 100 | > 100 |  |  |  |  |
| COc1ccc(C2C3=C(COC3=O)Oc3cc4c(cc32)OCO4)cc1OC (configuration not stated) | > 100 | > 100 | > 100 | > 100 | > 100 | > 100 | > 100 | 6.05 | > 100 |  |  |
| CCC1OC2(C)CC(C#N)(C#N)C1(C#N)C(=N)O2 (configuration not stated) | > 100 | > 100 | > 100 | > 100 | > 100 | > 100 | > 100 | > 100 | > 100 |  |  |
| Cc1ccc(N=Nc2c(O)ccc3ccccc23)c(C)c1 | > 100 | > 100 | > 100 | > 100 | > 100 | > 100 | > 100 | > 100 | > 100 |  |  |
| Cc1ccc(N2Cc3c(ccc4ccccc34)OP2(=S)N2CCCC2)cc1 (configuration not stated) | > 100 | > 100 | > 100 |  | > 100 | > 100 | > 100 | > 55.7 | > 100 |  |  |
| CNCC(SC)c1ccc(O)c(O)c1 (configuration not stated) | > 100 | > 100 | 45.8 | > 100 | > 100 | > 100 | 27.9 | 40.9 | 84.9 |  |  |
| CSCCC(NC(=O)C(Cc1c[nH]c2ccccc12)NC(=O)CCNC(=O)OC(C)(C)C)C(=O)NC(CC(=O)O)C(=O)NC(Cc1ccccc1)C(N)=O (configuration not stated) | > 50 | > 50 | > 50 | > 50 | > 50 |  | > 50 | > 50 | > 50 |  |  |
| C#CC(O)/C=C/C(O)CCCC(O)CC#CC(O)C#CCCCCC(O)/C=C/CCCC(=O)CCCCCCCCCCCCCCCC(O)C(O)C#CC(=O)O (configuration not stated) | > 25 | > 25 | > 25 | > 25 | > 25 | > 25 | > 25 |  | 10.4 | > 25 |  |
| CCOC(=O)C1=C(N2CCCC2)C(=O)C(C(=O)OCC)C1 (configuration not stated) | > 100 | > 100 | > 100 | > 100 | > 100 | > 100 | > 100 | > 100 | > 100 |  |  |
| CN1Cc2ccccc2C2(COc3ccccc3C2=O)C1 (configuration not stated) | > 100 | > 100 | > 100 |  | > 100 | > 100 | > 100 | > 100 | > 100 | 87.8 |  |
| CC1(C)CC(=O)C2=C(C1)NC(=S)C(C#N)C2c1ccccc1 (configuration not stated) | > 100 | > 100 | > 100 | > 100 | > 100 | > 100 | > 100 | > 100 | > 100 |  |  |
| CC1(C)Cc2ccccc2C(C)(Cl)C(=O)N1 (configuration not stated) | > 10 |  | > 10 | > 10 | > 10 | > 10 | > 10 | > 10 |  | > 10 |  |
| COc1ccc(-c2c(/C=N/OCC(=O)O)c3sc4ccccc4n3c2/C=N/OCC(=O)O)cc1 | > 50 | > 50 | > 50 | > 50 | > 50 | > 50 | > 50 | > 50 | > 50 |  |  |
| C/C(N=NS(=O)(=O)c1c(C)cc(C)cc1C)=C1\C=CC=CN1O | > 100 | > 100 | > 100 |  | > 100 | > 100 | > 100 | > 100 |  | > 100 |  |
| CN(C)Cc1cc(/C=C/C(=O)c2ccc(Br)cc2)cc(CN(C)C)c1O |  | 40 | 32.3 | 40 | > 100 | 23.2 | 33.7 | 71.4 |  |  |  |
| O=C(CCC(NC(=O)OCc1ccccc1)C(=O)OCc1ccccc1)Nc1cccc(OCc2ccccc2)c1 (configuration not stated) | > 100 |  | 46 | 56.5 | > 100 |  | 55 | 45.4 | 38.3 | 65.5 |  |
| Oc1c(NCn2nc(CCCCCCCCc3nn(CNc4ccc5ccccc5c4O)c(=S)o3)oc2=S)ccc2ccccc12 | > 100 | > 100 | > 100 | > 100 | > 100 | > 100 | > 100 |  |  |  |  |
